Data as given in PubChem BioAssay (NCI).
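How tested: cells in 96-well plates exposed to compound for 48 hours at five concentrations. GI50 marks 50% less growth. The concentration for full growth arrest is given as TGI.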

Experiments:
Assay in all cases: DTP human tumour cell line panel, 48 h
HOP-62 NSCLC = system: HOP-62 NSCLC
OVCAR-5 ovarian = system: OVCAR-5 ovarian
SN12C renal = system: SN12C renal
786-0 renal = system: 786-0 renal
LOX IMVI melanoma = system: LOX IMVI melanoma
SK-OV-3 ovarian = system: SK-OV-3 ovarian
EKVX NSCLC = system: EKVX NSCLC
U251 CNS = system: U251 CNS
SK-MEL-28 melanoma = system: SK-MEL-28 melanoma
PC-3 prostate = system: PC-3 prostate

Structure (SMILES)	TGI (HOP-62 NSCLC) [µM]	TGI (OVCAR-5 ovarian) [µM]	TGI (SN12C renal) [µM]	TGI (786-0 renal) [µM]	TGI (LOX IMVI melanoma) [µM]	TGI (SK-OV-3 ovarian) [µM]	TGI (EKVX NSCLC) [µM]	TGI (U251 CNS) [µM]	TGI (SK-MEL-28 melanoma) [µM]	GI50 (HOP-62 NSCLC) [µM]	GI50 (OVCAR-5 ovarian) [µM]	GI50 (SN12C renal) [µM]	GI50 (PC-3 prostate) [µM]	TGI (PC-3 prostate) [µM]	GI50 (786-0 renal) [µM]	GI50 (EKVX NSCLC) [µM]
CC(C)C/C(CC(=O)CCC(=O)Nc1ccccc1[N+](=O)[O-])=N\NC(=O)c1cc2ccccc2cc1O	> 100	> 100	> 100	> 100	79	> 100	> 100	> 100	> 100	–	–	–	–	–	–	–
N#CC(c1ccc(Cl)cc1)c1cccc(C(C#N)c2ccc(Cl)cc2)n1 (stereo not given)	> 100	> 100	> 100	> 100	–	> 100	> 100	> 100	> 100	–	–	–	–	–	–	–
O=C1C(=O)N(c2ccc(Cl)cc2Cl)C(=O)C(=O)C1c1nc2ccccc2s1	> 100	> 100	> 100	> 100	> 100	> 100	> 100	> 100	> 100	–	–	–	–	–	–	–
COc1cc2c(cc1OC)-c1c3cc(O)ccc3nn[n+]1CC2	> 100	–	> 100	> 100	> 100	> 100	> 100	> 100	> 100	–	–	–	–	–	–	–
Cc1cc(C)nc(NS(=O)(=O)c2ccc(NC(=O)c3ccc(Cl)c4c(Nc5ccc(S(=O)(=O)Nc6nc(C)cc(C)n6)cc5)c5ccccc5nc34)cc2)n1	> 100	32.4	> 100	20.4	> 100	76.5	88.8	21.9	> 100	–	–	–	–	–	–	–
CN(C)CC[N+]1=Nc2cccc3cccc(c23)N1	> 100	> 100	> 100	> 100	> 63.7	> 100	> 100	> 100	> 100	–	–	–	–	–	–	–
COC1CCC2C(NS(=O)(=O)c3ccc(C)cc3)CCCC2O1 (stereo not given) (tested in a mixture with another compound)	> 34.5	> 34.5	> 34.5	> 34.5	13	> 34.5	> 34.5	> 34.5	> 34.5	–	–	–	–	–	–	–
O=C(O)CCc1coc2ccc(O)cc12	> 100	–	> 100	> 100	> 100	> 100	> 100	> 100	> 100	–	–	–	–	–	–	–
CCCCCCCCCCCCCCCCCC(CCCCCCCCCCCCCCCCC)OP(=O)(O)O	–	> 100	> 100	> 100	> 100	> 100	> 100	> 100	> 100	–	–	–	–	–	–	–
CC(=O)NNc1nc(C)c(C(=O)NNC(=O)C(=O)Nc2c(Cl)cc([N+](=O)[O-])cc2Cl)s1	> 100	93.4	> 100	> 100	> 100	> 100	> 100	> 100	69.8	–	–	–	–	–	–	–
O=C(/C=C/c1ccccc1)NC1C=Nc2ccc(Cl)cc2NC1=O (stereo not given)	> 100	> 100	> 100	> 100	55.9	> 100	> 100	79.9	> 100	–	–	–	–	–	–	–
O=C(N/C(=C\c1ccc(/C=C(\NC(=O)c2ccccc2)c2nc3cc([N+](=O)[O-])ccc3[nH]2)cc1)c1nc2cc([N+](=O)[O-])ccc2[nH]1)c1ccccc1	> 100	> 100	> 100	> 100	> 100	> 100	> 100	> 100	69.8	–	–	–	–	–	–	–
CN1C(=O)C(C)(C)C2(SC(C)(C)C2(C)C)N(C)C1=S (stereo not given)	> 100	> 100	> 100	> 100	–	> 100	> 100	> 100	> 100	–	–	–	–	–	–	–
CC(C)=CC(=O)C1c2cccc(O)c2C(=O)c2c(O)cc(C)cc21 (stereo not given)	7.87	5.13	25.4	16.1	3.74	8.48	31.5	3.82	9.04	–	–	–	–	–	–	–
Cc1nc2ccccc2c(=O)n1-c1ccccc1I	> 100	> 100	> 100	> 100	–	> 100	> 100	> 100	> 100	–	–	–	–	–	–	–
COC(CN1C(=O)c2cccc3cccc(c23)C1=O)OC	> 100	> 100	> 100	> 100	> 100	> 100	> 100	> 100	> 100	–	–	–	–	–	–	–
Clc1cc2nsnc2c(Cl)n1	> 100	> 100	–	31.2	> 100	> 100	> 100	40.1	44.4	–	–	–	–	–	–	–

Structure (SMILES)	TGI (HOP-62 NSCLC) [µM]	TGI (OVCAR-5 ovarian) [µM]	TGI (SN12C renal) [µM]	TGI (786-0 renal) [µM]	TGI (LOX IMVI melanoma) [µM]	TGI (SK-OV-3 ovarian) [µM]	TGI (EKVX NSCLC) [µM]	TGI (U251 CNS) [µM]	TGI (SK-MEL-28 melanoma) [µM]	GI50 (HOP-62 NSCLC) [µM]	GI50 (OVCAR-5 ovarian) [µM]	GI50 (SN12C renal) [µM]	GI50 (PC-3 prostate) [µM]	TGI (PC-3 prostate) [µM]	GI50 (786-0 renal) [µM]	GI50 (EKVX NSCLC) [µM]
O=C1C2C(C(=O)N1OS(=O)(=O)c1ccccc1)N(Cc1ccccc1)C(=O)N2Cc1ccccc1 (stereo not given)	> 100	> 100	> 100	> 100	> 100	> 100	> 100	> 100	> 100	–	–	–	–	–	–	–
COc1ccc2c3c1C(=O)CCCC3CO2 (stereo not given)	> 100	> 100	> 100	> 100	> 100	> 100	–	> 100	> 100	–	–	–	–	–	–	–
C=C1C(=O)C23CC1CCC2C12CO[C@@H]4OCC(C)(CC[C@@H]1OC3=O)C42 (stereo not given in full)	43.4	29.2	21.3	5.71	3.44	40.1	32.1	27.4	4.41	–	–	–	–	–	–	–
CC1(c2ccc(F)cc2)C(C#N)C(=O)NC(=O)C1C#N (stereo not given)	> 100	> 100	> 100	> 100	> 100	> 100	> 100	–	> 100	–	–	–	–	–	–	–
CN/N=C(/Cc1occc(=O)c1O)C(=O)Nc1ccccc1C	> 100	> 100	> 100	> 100	> 100	> 100	> 100	> 100	> 100	–	–	–	–	–	–	–
COC1(OC)CCC2C1C1CCC(OC)(OC)C21 (stereo not given)	> 50	> 50	> 50	> 50	–	> 50	> 50	> 50	> 50	–	–	–	–	–	–	–
COc1cc(CNc2cnc3cc(N)cc(N)c3n2)cc(OC)c1	44.1	48	33.3	30	–	–	67.4	–	–	14.9	17.6	15.2	15.1	35.2	15.4	27.3
Cc1ccc(N=Nc2ccc(N(CCC#N)CCC#N)cc2C)c(Br)c1	93	> 100	> 100	61.5	–	> 100	> 100	> 100	> 100	–	–	–	–	–	–	–
O=C(COc1ccc(Br)cc1Br)N1N=C(c2ccc([N+](=O)[O-])o2)CC1(O)c1ccccc1 (stereo not given)	27.5	98.2	25.7	44.1	18.4	> 100	9.59	22.9	28	–	–	–	–	–	–	–
O=S1(=O)c2ccccc2NC(c2ccc3ccccc3c2)CC1c1ccccc1F (stereo not given)	> 100	> 100	> 100	> 100	> 100	> 100	> 100	–	> 100	–	–	–	–	–	–	–
O=CC[C@H]1C(=O)C[C@@H]2CCC[C@@H]21	> 100	> 100	> 100	> 100	–	> 100	> 100	> 100	> 100	–	–	–	–	–	–	–
O=C(O)c1ccccc1[Se][Se]c1ccccc1C(=O)O	73.5	–	> 100	> 100	76.1	> 100	–	> 100	> 100	–	–	–	–	–	–	–
CCCCCCCCCCCOc1ccc(C(=O)C(=O)c2ccc(OCCCCCCCCCCC)c(OCCCCCCCCCCC)c2)cc1OCCCCCCCCCCC	> 100	> 100	> 100	> 100	> 100	> 100	> 100	> 100	> 100	–	–	–	–	–	–	–
COC(=O)CC1CCN(C#N)CC1CC[N+](=O)[O-] (stereo not given)	> 100	–	> 100	> 100	–	> 100	–	> 100	> 100	–	–	–	–	–	–	–
C/C(CC(=O)CCC(=O)Nc1cccc(C(F)(F)F)c1)=N\NC(=O)NN	> 100	> 100	> 100	> 100	–	> 100	> 100	> 100	> 100	–	–	–	–	–	–	–
COc1ccccc1C12OC(=O)C1(C)Oc1ccccc1C2=O (stereo not given)	> 100	> 100	> 100	> 100	> 100	> 100	> 100	> 100	> 100	–	–	–	–	–	–	–
CCOC(=O)CN1C(=O)c2cccc3cc([N+](=O)[O-])cc(c23)C1=O	32.3	28.9	17.2	26.3	2.74	41	28.6	20.3	7.39	–	–	–	–	–	–	–
